Results as given in patent US20240166627A1, “Terpyridinedione compound or salt thereof, and preparation method and application thereof” (SHENZHEN SALUBRIS PHARMACEUTICALS CO., LTD., priority 2021, published 2024).
≈ marks a conversion by molar mass, not a printed value.

Legend:
[1] = Pharmacokinetic experiment in Beagle dogs (IV and PO); type: in vivo; conditions: male, dog, plasma, PO 5 mg/kg
From the text: Polyethylene glycol 400 (batch number: GORKREUT, Saen Chemical Technology (Shanghai) Co., Ltd.); DMSO (batch number: 20200319, GHTECH (Guangdong) Co., Ltd.); and normal saline (batch number: C20052604, Jiangxi Kelun Pharmaceutical Co., Ltd.). An LC-MS instrument (Thermo Fisher Ultimate 3000 UPLC, TSQ QUANTUM ULTRA TSQ Quantum GC).
5 male Beagle dogs with weights being 5 kg to 7 kg, purchased from Beijing Mars Biotechnology Co., Ltd. […]
After the above mixture is given to the dogs through intragastric administration (n=3) or intravenous administration (n=2), about 1 mL of blood is collected from the forelimb or hindlimb vein with a scalp needle, respectively, at 5 min (intravenous administration only), 15 min, 30 min, 1 h, 2 h, 4 h, 6 h, 8 h, 24 h to put into blood collection tubes containing EDTA-K2 anticoagulant; centrifugation is performed for 10 min at 4000 rpm to separate plasma; and then the tubes are stored at −80° C. for testing.
A certain amount of a test sample is accurately weighted and dissolved with DMSO to 2 mg/mL, as a stock solution. The stock solution is diluted to 30000, 10000, 3000, 1000, 300, 100, 50, 30, and 10 ng/mL by using acetonitrile:water (1:1), to obtain standard curve working solutions. 5 μL of the working solution is added to 45 μL of blank canine plasma; and well mixing is performed through vortex, to prepare into standard curve samples equivalent to plasma concentrations of 3000, 1000, 300, 100, 30, 10, 5, 3, and 1 ng/mL. 30 μL of the standard curve sample and the collected plasma sample (plasma collected at 5 min, 15 min, and 30 min of intravenous administration is diluted 5-fold) are added to 150 μL of a propranolol acetonitrile solution (internal standard, 50 ng/mL) to precipitate protein, then 100 μL of water is added to well mix through vortex; centrifugation is performed for 5 min at 4000 rpm; and supernatant is taken for LC-MS analysis. LC-MS detection conditions include the following.
Chromatographic column: Waters ACQUITY™ PREMIER HSS T3, 50*2.1 mm, 1.8 μm.
Mobile phase A: water (0.1% formic acid); mobile phase B: acetonitrile; flow rate: 0.5 mL/min; and gradient elution is shown in Table 3 below.
After LC-MS detection of blood drug concentration, and a non-compartment model of WinNonlin 6.1 software is adopted to calculate pharmacokinetic parameters of beagle dogs after administration.

p38β = p38β (Homo sapiens, UniProt Q15759); test: p38β kinase screening experiment (ADP-Glo); type: biochemical
Chain of p38β (Q15759 whole entry): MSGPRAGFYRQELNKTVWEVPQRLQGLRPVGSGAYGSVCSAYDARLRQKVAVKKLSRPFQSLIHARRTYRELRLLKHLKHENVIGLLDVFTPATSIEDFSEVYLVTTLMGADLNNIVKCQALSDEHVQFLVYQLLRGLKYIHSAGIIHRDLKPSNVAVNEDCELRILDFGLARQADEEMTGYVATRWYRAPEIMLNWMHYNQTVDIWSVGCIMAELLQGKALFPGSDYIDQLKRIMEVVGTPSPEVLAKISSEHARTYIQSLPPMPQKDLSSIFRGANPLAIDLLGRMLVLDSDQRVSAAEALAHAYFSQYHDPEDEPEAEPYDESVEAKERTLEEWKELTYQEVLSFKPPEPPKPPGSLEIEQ
Protocol: (§1) A certain amount of the compound is weighed, prepared into a 10/50 mM mother solution with DMSO, diluted 3 folds with DMSO, and diluted to 10 concentration points as a compound working solution.
(§2) 50 nL of the diluted compound working solution is transferred to each well of a reaction plate (784075, Greiner) with Echo 655, then 2.5 μL (2 ng/μL) of a p38β kinase solution is added; after 10 minutes at room temperature, 2.5 μL of a mixed solution of a kinase substrate (0.4 mg/mL) and ATP (100 μM) is added, for reaction for 60 min at room temperature; and 4 μL of an ADP Glo reagent is added, for incubation for 40 min at room temperature. 8 μL of a kinase detection reagent is added, for incubation for 40 min at room temperature; and finally a light-emitting signal is read on Envision 2104.

p38α/MK2 complex = p38α/MK2 complex (Homo sapiens, UniProt P49137+Q16539); test: p38α/MK2 complex kinase screening experiment (IMAP FP); type: biochemical; conditions: p38α 0.2 nM, MK2 unactive 1 nM, HSP27 substrate 1 μM, ATP 10 μM; read-out: IC50 value that the compound inhibits p38α/MK2 complex
Chain of p38α/MK2 complex (Q16539 whole entry): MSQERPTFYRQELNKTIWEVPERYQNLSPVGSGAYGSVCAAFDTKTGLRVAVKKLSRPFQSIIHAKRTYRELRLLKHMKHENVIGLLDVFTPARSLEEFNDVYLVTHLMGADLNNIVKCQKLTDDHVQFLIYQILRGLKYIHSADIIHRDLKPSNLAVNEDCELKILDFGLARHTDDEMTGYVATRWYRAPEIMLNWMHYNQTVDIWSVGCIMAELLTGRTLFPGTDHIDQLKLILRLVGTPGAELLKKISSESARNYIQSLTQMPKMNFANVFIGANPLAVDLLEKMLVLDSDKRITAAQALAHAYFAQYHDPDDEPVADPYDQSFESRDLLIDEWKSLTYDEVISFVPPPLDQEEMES
Chain of p38α/MK2 complex (P49137 whole entry): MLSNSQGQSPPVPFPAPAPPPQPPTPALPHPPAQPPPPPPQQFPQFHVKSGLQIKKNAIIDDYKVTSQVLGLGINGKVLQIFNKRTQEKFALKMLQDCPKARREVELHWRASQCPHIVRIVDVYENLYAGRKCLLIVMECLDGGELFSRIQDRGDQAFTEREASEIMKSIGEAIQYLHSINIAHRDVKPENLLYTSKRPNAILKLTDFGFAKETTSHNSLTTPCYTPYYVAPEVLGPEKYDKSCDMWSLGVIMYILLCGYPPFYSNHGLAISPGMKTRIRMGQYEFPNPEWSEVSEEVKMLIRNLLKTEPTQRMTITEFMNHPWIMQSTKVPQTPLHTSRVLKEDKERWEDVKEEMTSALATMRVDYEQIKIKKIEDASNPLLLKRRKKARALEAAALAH
Protocol: A certain amount of a drug is weighted and prepared into a 10 mM of mother solution by using DMSO; the mother solution is diluted to 100 μM (100× working solution) in two steps; and then, the solution is diluted 3-fold to 33.33 μM, 11.11 μM, 3.70 μM, 1.23 μM, 0.41 μM, 0.14 μM, 0.046 μM, 0.015 μM, and 0.005 μM, successively. DMSO control is also arranged.
Then, a series of diluted DMSO drugs are diluted 25 folds with 1×IMAP Reaction Buffer as a 4× drug working solution.
10 gradient concentrations and 2 duplicated wells are set to each group of compounds; and a DMSO control group and a negative control group (DMSO, no ATP) are additionally set.
• c), after 1 h of incubation at room temperature, 1× Progressive Binding Solution is added to end the enzymatic reaction; after 30 min of incubation, a BMGPHERASTER FSX multifunctional microplate reader is used to detect a Fluorescence Polarization (FP) signal [FP(Ex485/Em520/Em520 nm)].

p38α = p38α (Homo sapiens, UniProt Q16539); test: p38α kinase screening experiment (ADP-Glo); type: biochemical
Chain of p38α (Q16539 whole entry): as the sequence (Q16539 whole entry) above
Protocol: as §1
as §2, with “(4” for “(2”, “p38α” for “p38β”, “(0.2” for “(0.4”, “(150” for “(100”

[2] = Determination of solubility; type: physicochemical; conditions: aqueous buffer, thermodynamic from solid, 37° C. 1 h
Protocol: About 0.5 mg of a to-be-tested sample in a centrifuge tube is weighted, an appropriate amount of DMSO is added to completely dissolve the sample, and then methanol is added to make up to 1 ml.
(If there are more pH values to be investigated, the preparation method may be deduced by analogy).
3. The prepared control solution and test solution are simultaneously put into a 37° C. water bath and heated for 1 h, after 1 h, the solutions are taken out and cooled to room temperature, and then the solutions are filtered with a 0.22 μm filter membrane for sample injection.
4. The concentration of the sample in the test solution is calculated according to C=(A*(ms/vs))/AS, and experiment results are shown in Table 2.
Note: ms, vs and AS are the weight, volume and peak area of the sample in the control solution, respectively.
A is the peak area of the test solution.

## Cc1cnc(-n2cccc(C(C)(C)O)c2=O)cc1-n1c(C)cc(OCc2ncc(F)cc2F)c(Cl)c1=O [Comparative example 1]
[1]
  AUC(0-t): 32900 ng·h/mL
  Cmax: 5550 ng/mL
p38β; ATP 100 μM in the substrate/ATP mix, 60 min, read-out: IC50 value that the compound inhibits p38β
  IC50: 4.1 µM
p38β; ratio of p38β IC50 to p38α/MK2 complex IC50 of Embodiment 50
  Activity multiple relative to p38β/(p38α/MK2 complex): 1575
p38α/MK2 complex
  IC50: 2.6 nM
p38α; ATP 150 μM in the substrate/ATP mix, 60 min, read-out: IC50 value that the compound inhibits p38α
  IC50: 578 nM
p38α; ratio of p38α IC50 to p38α/MK2 complex IC50 of Embodiment 50
  Activity multiple relative to p38α/(p38α/MK2 complex): 222
[2]; pH = 2.0, PBS buffer
  solubility at 1 h: 427 µg/mL (≈ 807 µM)
[2]; pH = 7.4, PBS buffer
  solubility at 1 h: 595 µg/mL (≈ 1130 µM)
